The values below come from PubChem BioAssay AID179 (DTP/NCI, 2004).

The test system of the test is CEM cells HIV-1 protection, formazan growth assay. Briefly: NCI AIDS Antiviral Assay. As to conditions: for IC50: measured here: growth of uninfected CEM cells. The procedure, abridged: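 Soluble formazan readout of cell growth; CEM cells ± HIV-1; 5 drug concs. ≥50% protection → retest; ≥50% again = moderately active; reproducible 100% = confirmed active.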

Several values for one entry are separate records, joined by “and”; a condition that tells them apart may be missing. Identical values can stand only once. Activity calls are given as the source filed them.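 Rule for the calls: active = compounds giving half or more protection of infected cells from virus-caused growth loss, again on retest; inactive = the rest.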 Where a SMILES comes first, the peptide text is derived from it. The star is where a group is joined. Boc = CC(C)(C)OC(=O)*; tBu = CC(C)(C)*

Turning to `c1ccc([P+](CCNCCNCC[P+](c2ccccc2)(c2ccccc2)c2ccccc2)(c2ccccc2)c2ccccc2)cc1`, the EC50 (in general, the concentration that produces a half-maximal response) is over 355 µM and the IC50 (usually the concentration that inhibits the measured activity by half) is 234 µM.

Consider `O=C(O)C(CP(=O)(O)O)=C(Cl)Cl`, for which the EC50 is over 741 µM and the concentration for half-maximal inhibition (IC50) was over 741 µM.

For `O=C(O)CCCCCSCCCCCCSCCCCCC(=O)O`, the EC50 is over 50.1 µM and the IC50 is over 50.1 µM.

With `COC(=O)c1cc2c(n1S(=O)(=O)c1ccc(C)cc1)C(=O)C(=O)c1[nH]cc(C(=O)OCc3ccccc3)c1-2`, the EC50 is over 200 µM and the IC50 amounted to 0.38 µM.

Take `NC(=O)c1oc([N+](=O)[O-])c(-c2ccccc2)c1-c1ccccc1`: the EC50 is over 200 µM and the IC50 was 15.1 µM.

In the case of `CCCCCCCCCCCCCCCC(=O)OCCOCCOCCOCCOCCOC(=O)CCCCCCCCCCCCCCC`, the result was inactive.

Consider `COC(=O)C1=C2Nc3ccccc3[C@@]23CCN(Cc2ccccc2)C3CC1[C@@H]1COC(C)(C)O1` (stereo partly drawn), for which the EC50 is over 100 µM and the IC50 came out at 51.3 µM.

For the compound `Nc1ccn(C2CC(F)C(CO)O2)c(=O)n1` (stereo not drawn), the 50% effective concentration (EC50) is 0.148 µM and the IC50 was 427 µM.

`CCCOC(=O)C1OC12CCCCC2` (stereo not drawn): the EC50 was over 200 µM and the IC50 is over 200 µM.

Regarding `Cc1cc2c(cc1Cl)SC(C(=O)c1ccc(Cl)c(Cl)c1)=NS2(=O)=O`, the outcome was inactive.

In the case of `CN(C)C=Nc1ccc2c3c(cccc13)-c1ccccc1-2`, the EC50 is over 200 µM and the IC50 was 14.1 µM.

Consider `CN(CCC#N)C1=CCCC1`, for which the EC50 was over 200 µM and the IC50 was over 200 µM.

Turning to `O=S(=O)(O)c1cc2onnc2c2ccccc12`, the EC50 was over 1000 µM and the IC50 is 525 µM.

With `Nc1nc(N)c2nc(CNc3ccc(C(=O)NC(CCC(=O)O)C(=O)O)cc3F)cnc2n1` (stereo not drawn), the EC50 was over 200 µM and the IC50 was 0.0631 µM.

Consider `CC12Cc3ccccc3CC1OCN1CN2COC2Cc3ccccc3CC21C` (stereo not drawn), for which the EC50 is over 13.2 µM and the IC50 was over 13.2 µM.

In the case of `CCOC(=O)N1C/C(=C\c2ccccc2)C(=O)/C(=C/c2ccccc2)C1`, the EC50 is over 100 µM and the IC50 is 1.82 µM.

Take `O=C1O/C(=C(\Br)c2ccccc2)c2ccccc21`: the EC50 is over 200 µM and the IC50 was determined as 3.63 µM.

Take `OC1CC2CCC(C1)S2` (stereo not drawn): the EC50 was over 200 µM and the IC50 is over 200 µM.

Turning to `Cc1ccc(S(=O)(=O)N(C)CC(=O)c2ccccc2)cc1`, the EC50 is over 117 µM and the IC50 was over 117 µM.

As to `CC12CCC(C)(c3cc(O)c(O)cc31)c1cc(O)c(O)cc12`, the result was inactive.

Take `COC1=C(C)C(=O)c2nc(C)ccc2C1=O`: the result was inactive.

Regarding `S=c1n(-c2ccc(Cl)cc2)c2/c(=N\Nc3cc(Cl)ccc3Cl)c(n1-c1ccccn1)=NCCN=2`, the EC50 is over 200 µM and the IC50 was over 200 µM.

As for `O=S(=O)(O)c1ccc2c(N=Nc3ccc(/C=C/c4ccc(N=Nc5c(O)ccc6cc(S(=O)(=O)O)ccc56)cc4S(=O)(=O)O)c(S(=O)(=O)O)c3)c(O)ccc2c1`, the EC50 is 7.76 µM and the IC50 was determined as 97.7 µM.

Turning to `COc1nc(OC)c2c(=O)oc(-c3ccccc3)cc2n1`, the outcome was inactive.

As to `Cc1ccc(C2(O)CC(c3ccc([N+](=O)[O-])o3)=NN2C(=O)COc2ccc(Cl)cc2)cc1` (stereo not drawn), the EC50 was over 11.5 µM and the IC50 is over 11.5 µM.

Consider `CC[N+]12CC[N+](CC)(CC1)C2`, for which the EC50 is over 708 µM and the IC50 is over 708 µM.

`COc1ccc(-c2csc(=[N+]3CCCCC3)s2)cc1`: the result was inactive.

For `Cc1cc(=O)oc2cc(OCc3nc4ccccc4c(=O)n3-c3ccccc3)ccc12`, the EC50 was over 43.7 µM and the 50% inhibitory concentration (IC50) is over 43.7 µM.

As to `Cc1ccc(Sc2ccc(C)cc2[N+](=O)[O-])c([N+](=O)[O-])c1`, the EC50 was over 97.7 µM and the IC50 was over 97.7 µM.

`COc1ccc2nc(NC(=O)C(=O)C(C(=O)c3ccccc3-c3ccccc3)C3OC(=O)c4ccccc43)sc2c1` (stereo not drawn): the EC50 is over 45.7 µM and the half-maximal inhibitory concentration (IC50) worked out at 25.1 µM.

Turning to `Cn1cc(NC(=O)c2cc(NC(=O)c3cc(NC=O)cn3C)cn2C)cc1C(=O)NCCC(=N)N`, the EC50 is over 513 µM and the IC50 was determined as 30.2 µM.

As for `N[C@@H](Cc1ccc(O)c(O)c1)C(=O)O`, the EC50 is over 200 µM and the IC50 amounted to 51.3 µM.

As for `CN(C)c1ccc(/C=C/C(=O)C(C)(C)C)cc1Br`, the EC50 is over 32.4 µM and the IC50 was 21.4 µM.

In the case of `CCOC(=O)/C(F)=C/c1ccc(C#N)cc1`, the EC50 was over 33.1 µM and the IC50 was over 33.1 µM.

`O=S(=O)(c1ccccn1)c1nc2ccccc2s1`: the result was inactive.

For the compound `N.N.N.N.N.O=C([O-])C(=O)[O-].[Co+3].[O-][Cl+3]([O-])([O-])O.[O-][Cl+3]([O-])([O-])[O-]`, the outcome was inactive.

Consider `O=C1C(=Cc2ccc(F)cc2)C(=O)c2ccccc21`, for which the EC50 is over 10.7 µM and the IC50 is over 10.7 µM.

For `CCC[n+]1noc(N)n1`, the EC50 was over 1510 µM and the IC50 was over 1510 µM.

Turning to `C1CSCCSCCCSCCSCCCSCCSC1`, the EC50 is over 200 µM and the IC50 is over 200 µM.

On to `O=C(Nn1c(-c2ccccc2)nc2ccccc2c1=O)c1ccc(Cl)cc1`, for which the EC50 is over 200 µM and the IC50 was 120 µM.

Consider `CN1CCCCCCC1CO` (stereo not drawn), for which the outcome was inactive.

With `CC(OC(C)(C)C)C(NC(=O)C(N)CCCCNC(=O)OC(C)(C)C)C(=O)NC(Cc1ccccc1)C(=O)O` (stereo not drawn) (H-Lys(Boc)-Thr(tBu)-Phe-OH; configuration not given here), the EC50 is over 200 µM and the IC50 is over 200 µM.

For `CCCCCCCCC(=O)NCCCNCCCNC(=O)CCCCCCCC`, the EC50 was over 100 µM and the IC50 came out at 10 µM.

With `CCOC(=O)/C=C/[C@H](O[Si](c1ccccc1)(c1ccccc1)c1ccccc1)C(C)(C)C`, the EC50 is over 200 µM and the IC50 is over 200 µM.

Regarding `O=C(c1ccccc1)c1ccc2cccc(O)c2n1`, the EC50 is over 75.9 µM and the IC50 stood at 50.1 µM.

In the case of `Cc1cn(C2CC(ON)C(CO)O2)c(=O)[nH]c1=O` (stereo not drawn), the EC50 was over 200 µM and the IC50 was over 200 µM.

With `CCCCc1c2c(nc3c1CCCC3O)/C(=C/c1ccccc1)CCC2` (stereo not drawn), the EC50 is over 6.31 µM and the IC50 is over 6.31 µM.

As to `CC(NC(=O)OC(C)(C)C)C(=O)NC(Cc1ccccc1)C(=O)NCC(=O)O` (stereo not drawn) (Boc-Ala-Phe-Gly-OH; configuration not given here), the EC50 is over 200 µM and the concentration for half-maximal inhibition (IC50) was over 200 µM.

Turning to `CCCCCOCC(=O)OC`, the EC50 is over 200 µM and the IC50 came out at 112 µM.

Consider `COC1=CC2C3Cc4c(-c5cc(OC)c(O)c6c5CC5C7C=C(OC)C(=O)CC67CCN5C)cc(OC)c(O)c4C2(CCN3C)CC1=O` (stereo not drawn), for which the EC50 was over 200 µM; the IC50 was > 200 µM and 132 µM and 117 µM.

On to `CCC(=O)NC(NNS(=O)(=O)c1ccc(C)cc1)(C(F)(F)F)C(F)(F)F`, for which the EC50 was over 200 µM and the IC50 worked out at 35.5 µM.

With `C1=NCCNc2nc3ccccc3cc2C=NCCNc2nc3ccccc3cc21`, the EC50 was over 200 µM and the IC50 is over 200 µM.

In the case of `CCOc1ccc(/C=C/C(=O)c2sc(NNC(C)=O)nc2C)cc1`, the EC50 was over 20.9 µM and the concentration for half-maximal inhibition (IC50) was over 20.9 µM.

Take `C#CC(C)(C)C(/C=N\NC(=O)O[C@H]1CC(C)CCC1C(C)C)CCC(=O)OC` (stereo partly drawn): the EC50 is over 200 µM and the IC50 was found to be 25.1 µM.

With `O=[N+]([O-])/C(Cl)=C(\NCCO)C(Cl)=C(Cl)Cl`, the EC50 was over 200 µM and the IC50 was determined as 63.1 µM.

Consider `O=c1c2cccnc2ncn1CCCN1CCCC1`, for which the result was inactive.

For `CCC1=C(OC)c2nccc(C)c2C(=O)C1=O`, the outcome was inactive.

With `O=c1[nH]c2ccccc2nc1CBr`, the EC50 was over 200 µM and the IC50 was found to be 2.82 µM.

Regarding `CCOC(=O)c1c(C)nn2c1ccc1ccccc12`, the EC50 was over 200 µM and the IC50 came to 110 µM.

For `COc1ccc(-n2c(C)nc3ccc(NC4OCC(OC(C)=O)C(OC(C)=O)C4OC(C)=O)cc3c2=O)cc1` (stereo not drawn), the EC50 is over 200 µM and the IC50 was 123 µM.

In the case of `COC(=O)CN(CC(O)C(NC(C)=O)C(O)C=O)C(=O)OCc1ccccc1` (stereo not drawn), the EC50 is over 200 µM and the half-inhibitory concentration (IC50) is over 200 µM.

Take `CCC(C)C(NC(=O)C(CCCN=C(N)N)NC(=O)C(CC(N)=O)NC(=O)C(Cc1cnc[nH]1)NC(=O)C(N)CC(C)C)C(=O)NC(C(=O)NC(CC(C)C)C(=O)NCC(=O)NC(CC(N)=O)C(=O)O)C(C)CC` (stereo not drawn) (H-LHNRIILGN-OH; configuration not given here): the EC50 was over 47.9 µM and the IC50 was over 47.9 µM.

As to `CC(C)(NC(=O)OCc1ccccc1)C(=O)OC(=O)C(C)(C)NC(=O)OCc1ccccc1`, the EC50 is over 200 µM and the IC50 is over 200 µM.

Compound `O=c1cc2oc3cc(O)c(O)cc3c(-c3ccccc3O)c-2cc1O` displayed an EC50 of over 200 µM and an IC50 of 115 µM.

In the case of `O=C(CC(c1ccccc1)C1C(=O)C12CCCC2)c1ccccc1` (stereo not drawn), the EC50 was over 81.3 µM and the IC50 is over 81.3 µM.

For the compound `O=C1c2cscc2C(=O)c2sccc21`, the EC50 is over 200 µM and the half-inhibitory concentration (IC50) was 23.4 µM.

On to `NC(=O)c1nnc2cc(F)ccc2c1N`, for which the EC50 was over 200 µM and the IC50 was determined as 74.1 µM.

With `NC(=O)C(=O)N/N=C/c1ccc([N+](=O)[O-])o1`, the EC50 is over 200 µM and the IC50 amounted to 8.32 µM.

On to `Cc1ccccc1NC(=O)C(=O)C(c1cnc2ccc([N+](=O)[O-])cc2n1)[N+](=O)[O-]` (stereo not drawn), for which the EC50 is over 240 µM and the IC50 came to 126 µM.

For the compound `CCN(CC)c1c(C)nnn1C1OC(COC(C)=O)C(OC(C)=O)C(OC(C)=O)C1OC(C)=O` (stereo not drawn), the EC50 was over 141 µM and the IC50 was over 141 µM.

As for `CC(=O)/C(=C\n1c(=S)[nH]c2ccccc21)C(=O)Nc1ccccc1`, the EC50 was over 200 µM and the IC50 was over 200 µM.

For `O=[N+]([O-])c1nccn1CC(O)c1ccc(F)cc1` (stereo not drawn), the EC50 was over 1000 µM and the IC50 was over 1000 µM.
